Assay results: publication PMC4282596 (Psychopharmacology, 2014)

Molecular target: T1, 5-HT2C receptor (Homo sapiens, UniProt P28335)
T1 sequence (P28335 33-458): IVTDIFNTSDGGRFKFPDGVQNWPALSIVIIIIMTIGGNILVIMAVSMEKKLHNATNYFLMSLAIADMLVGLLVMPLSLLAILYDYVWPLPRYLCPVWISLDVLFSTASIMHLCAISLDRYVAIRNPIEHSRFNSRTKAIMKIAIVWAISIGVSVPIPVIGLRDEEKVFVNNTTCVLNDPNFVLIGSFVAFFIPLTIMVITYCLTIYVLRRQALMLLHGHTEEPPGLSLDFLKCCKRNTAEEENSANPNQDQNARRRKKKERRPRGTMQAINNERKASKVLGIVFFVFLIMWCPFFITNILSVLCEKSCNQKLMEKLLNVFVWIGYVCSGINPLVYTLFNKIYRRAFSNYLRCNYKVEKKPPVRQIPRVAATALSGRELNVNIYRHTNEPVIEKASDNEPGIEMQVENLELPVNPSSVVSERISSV
Experiment: […]DOI radioligand competition binding on HEK-h5HT2C cell homogenate

For `CC(C)N(CCc1c[nH]c2ccccc12)C(C)C` [DiPT], which Ki is on record?
Its Ki is 290 ± 110 nM.
